Laboratory results taken from ChEMBL document CHEMBL1149779, “Synthesis, characterization and in vitro release studies of a new acetazolamide-HP-beta-CD-TEA inclusion complex” (Eur J Med Chem, 2008).
Values after ≈ are worked out from the molar mass of the structure shown.

How the values were obtained:
[1] = Permeability across rabbit cornea; format: ADME, tissue-based, Oryctolagus cuniculus
physchem [2] = conditions: citric acid-Na2HPO4 buffer, pH 4.12
Description: Solubility in citric acid-Na2HPO4 buffer at pH 4.12

physchem [3] = conditions: citric acid-Na2HPO4 buffer, pH 4.12; remark: listed apart in the source
Description: Solubility in citric acid-Na2HPO4 buffer at pH 4.12 in presence of 0.0226 mol/l hydroxypropyl-beta-cyclodextrin

physchem [4] = conditions: citric acid-Na2HPO4 buffer, pH 4.12; remark: listed apart in the source
Description: Solubility in citric acid-Na2HPO4 buffer at pH 4.12 in presence of 0.0302 mol/l hydroxypropyl-beta-cyclodextrin

physchem [5] = conditions: citric acid-Na2HPO4 buffer, pH 4.12; remark: listed apart in the source
Description: Solubility in citric acid-Na2HPO4 buffer at pH 4.12 in presence of 0.0604 mol/l hydroxypropyl-beta-cyclodextrin

physchem [6] = conditions: citric acid-Na2HPO4 buffer, pH 4.12; remark: listed apart in the source
Description: Solubility in citric acid-Na2HPO4 buffer at pH 4.12 in presence of 0.0755 mol/l hydroxypropyl-beta-cyclodextrin

physchem [7] = conditions: citric acid-Na2HPO4 buffer, pH 4.12; remark: listed apart in the source
Description: Solubility in citric acid-Na2HPO4 buffer at pH 4.12 in presence of 0.1132 mol/l hydroxypropyl-beta-cyclodextrin

physchem [8] = conditions: citric acid-Na2HPO4 buffer, pH 4.12; remark: listed apart in the source
Description: Solubility in citric acid-Na2HPO4 buffer at pH 4.12 in presence of 0.1660mol/l hydroxypropyl-beta-cyclodextrin

physchem [9] = conditions: water
physchem [10] = conditions: water; remark: listed apart in the source
Description: Solubility in water in presence of 0.0151 mol/l hydroxypropyl-beta-cyclodextrin

physchem [11] = conditions: water; remark: listed apart in the source
Description: Solubility in water in presence of 0.0302 mol/l hydroxypropyl-beta-cyclodextrin

physchem [12] = conditions: water; remark: listed apart in the source
Description: Solubility in water in presence of 0.0604 mol/l hydroxypropyl-beta-cyclodextrin

physchem [13] = conditions: water; remark: listed apart in the source
Description: Solubility in water in presence of 0.0755 mol/l hydroxypropyl-beta-cyclodextrin

physchem [14] = conditions: water; remark: listed apart in the source
Description: Solubility in water in presence of 0.1132 mol/l hydroxypropyl-beta-cyclodextrin

physchem [15] = conditions: NaOH-NaHCO3 buffer, pH 9.57
Description: Solubility in NaOH-NaHCO3 buffer at pH 9.57

physchem [16] = conditions: NaOH-NaHCO3 buffer, pH 9.57; remark: listed apart in the source
Description: Solubility in NaOH-NaHCO3 buffer at pH 9.57 in presence of 0.0226 mol/l hydroxypropyl-beta-cyclodextrin

physchem [17] = conditions: NaOH-NaHCO3 buffer, pH 9.57; remark: listed apart in the source
Description: Solubility in NaOH-NaHCO3 buffer at pH 9.57 in presence of 0.0302 mol/l hydroxypropyl-beta-cyclodextrin

physchem [18] = conditions: NaOH-NaHCO3 buffer, pH 9.57; remark: listed apart in the source
Description: Solubility in NaOH-NaHCO3 buffer at pH 9.57 in presence of 0.0604 mol/l hydroxypropyl-beta-cyclodextrin

physchem [19] = conditions: NaOH-NaHCO3 buffer, pH 9.57; remark: listed apart in the source
Description: Solubility in NaOH-NaHCO3 buffer at pH 9.57 in presence of 0.0755 mol/l hydroxypropyl-beta-cyclodextrin

physchem [20] = conditions: NaOH-NaHCO3 buffer, pH 9.57; remark: listed apart in the source
Description: Solubility in NaOH-NaHCO3 buffer at pH 9.57 in presence of 0.1132 mol/l hydroxypropyl-beta-cyclodextrin

physchem [21] = conditions: NaOH-NaHCO3 buffer, pH 9.57; remark: listed apart in the source
Description: Solubility in NaOH-NaHCO3 buffer at pH 9.57 in presence of 0.1660 mol/l hydroxypropyl-beta-cyclodextrin

physchem [22] = conditions: water; remark: listed apart in the source
Description: Solubility in water in presence of 0.334 mol/l triethanolamine

physchem [23] = conditions: water; remark: listed apart in the source
Description: Solubility in water in presence of 0.1001 mol/l triethanolamine

physchem [24] = conditions: citric acid-Na2HPO4 buffer, pH 4.12; remark: listed apart in the source
Description: Solubility in citric acid-Na2HPO4 buffer at pH 4.12 in presence of 0.2 M hydroxypropyl-beta-cyclodextrin

physchem [25] = conditions: NaOH-NaHCO3 buffer, pH 9.57; remark: listed apart in the source
Description: Solubility in NaOH-NaHCO3 buffer at pH 9.57 in presence of 0.2 M hydroxypropyl-beta-cyclodextrin

For `CC(=O)Nc1nnc(S(N)(=O)=O)s1` [ACETAZOLAMIDE], which permeability [1] is on record?
Its permeability is 4.1 ×10⁻⁶ cm/s.

What about the solubility (physchem [2]) of the same molecule?
Its solubility is 850 µg/mL (≈ 3.82 mM).

What about the solubility (physchem [3]) of the same molecule?
Its solubility is 1660 µg/mL (≈ 7.47 mM).

What about the solubility (physchem [4]) of the same molecule?
The solubility was 1830 µg/mL (≈ 8.23 mM).

And the solubility (physchem [5])?
The solubility was 2280 µg/mL (≈ 10.3 mM).

What about the solubility (physchem [6]) of the same molecule?
The solubility was 2960 µg/mL (≈ 13.3 mM).

And the solubility (physchem [7])?
Its solubility is 3780 µg/mL (≈ 17 mM).

What about the solubility (physchem [8]) of the same molecule?
Its solubility is 4970 µg/mL (≈ 22.4 mM).

What about the solubility (physchem [9]) of the same molecule?
The solubility was 810 µg/mL (≈ 3.64 mM).

And the solubility (physchem [10])?
The solubility was 1880 µg/mL (≈ 8.46 mM).

What about the solubility (physchem [11]) of the same molecule?
The solubility was 2440 µg/mL (≈ 11 mM).

And the solubility (physchem [12])?
Its solubility is 4510 µg/mL (≈ 20.3 mM).

And the solubility (physchem [13])?
The solubility was 5530 µg/mL (≈ 24.9 mM).

What about the solubility (physchem [14]) of the same molecule?
Its solubility is 7030 µg/mL (≈ 31.6 mM).

And the solubility (physchem [15])?
The solubility was 2770 µg/mL (≈ 12.5 mM).

What about the solubility (physchem [16]) of the same molecule?
The solubility was 3210 µg/mL (≈ 14.4 mM).

And the solubility (physchem [17])?
Its solubility is 3620 µg/mL (≈ 16.3 mM).

And the solubility (physchem [18])?
The solubility was 4770 µg/mL (≈ 21.5 mM).

And the solubility (physchem [19])?
The solubility was 5290 µg/mL (≈ 23.8 mM).

What about the solubility (physchem [20]) of the same molecule?
Its solubility is 5930 µg/mL (≈ 26.7 mM).

And the solubility (physchem [21])?
Its solubility is 7020 µg/mL (≈ 31.6 mM).

And the solubility (physchem [22])?
The solubility was 3860 µg/mL (≈ 17.4 mM).

And the solubility (physchem [23])?
The solubility was 5910 µg/mL (≈ 26.6 mM).

What about the solubility (physchem [24]) of the same molecule?
The solubility was 4970 µg/mL (≈ 22.4 mM).

And the solubility (physchem [25])?
The solubility was 7020 µg/mL (≈ 31.6 mM).
